Measurements reported in US7241785B2, “Five-membered heterocyclic alkanoic acid derivative” (Takeda Pharmaceutical Company Limited, priority 2001, dated 2007).

Columns and labels:
KKA^y mice [1] = test: Total cholesterol lowering action and plasma anti-arteriosclerosis index-enhancing action in mice; assay type: in vivo; settings: Mus musculus, po, 96 h, 0.01% in powdery diet, four days; for change in vivo at 0.01 % in diet: percent increase of index [(HDL cholesterol/total cholesterol)×100] vs non-treatment group (100%); for inhibition in vivo at 0.01 % in diet: percent reduction of total cholesterol level vs non-treatment group (100%)
Description: Total Cholesterol Lowering Action and Plasma Anti-Arteriosclerosis Index-Enhancing Action in Mice
Test compounds were mixed in a powdery diet (CE-2, Japan Clea concentration of 0.01%, and freely given to KKA^y mice (11 to 12 weeks old, 5 mice per group), a model of type 2 diabetes mellitus, for four days. During this period, water was given freely. Blood was sampled from orbital venous plexus, and components in plasma separated from the blood were determined. Total cholesterol levels were determined using L type Wako Cholesterol (Wako Pure Chemical Industries, Ltd.). Precipitation reagent for HDL cholesterol was added to a part of the plasma to precipitate non-HDL lipoprotein, and cholesterol (HDL cholesterol) in the resulting supernatant was determined. The plasma anti-arteriosclerosis index [(HDL cholesterol/total cholesterol)×100] was calculated using these cholesterol levels.
In the Table, “total cholesterol lowering action (%)” represents a percent reduction (%) of the total cholesterol level in the treatment group when the total cholesterol level in the non-treatment group is taken as 100%. In addition, “plasma anti-arteriosclerosis index-enhancing action (%)” represents a percent increase (%) of the plasma anti-arteriosclerosis index in the treatment group when the plasma anti-arteriosclerosis index in the non-treatment group is taken as 100%.

KKA^y mice [2] = test: Hypoglycemic and hypolipidemic (hypotriglyceridemic) actions in mice; assay type: in vivo; settings: Mus musculus, po, 96 h, 0.01% in powdery diet, four days
Description: Hypoglycemic and Hypolipidemic (Hypotriglyceridemic) Actions in Mice
Test compounds were mixed in a powdery diet (CE-2, Japan Clea) at the concentration of 0.01%, and freely given to KKA^y mice (11 to 12 weeks old, 5 mice per group), a model of type 2 diabetes mellitus, for four days. During this period, water was given freely. Blood was sampled from orbital venous plexus, and glucose and triglyceride levels in plasma separated from the blood were determined enzymatically using L type Wako Glu2 (Wako Pure Chemical Industries, Ltd.) or L type Wako TG.H (Wako Pure Chemical Industries, Ltd.), respectively.
In the Table, “hypoglycemic action (%)” represents a percent reduction (%) of the blood glucose level in the treatment group when the blood glucose level in the non-treatment group is taken as 100%. In addition, “hypolipidemic action (%)” represents a percent reduction (%) of the blood triglyceride level in the treatment group when the blood triglyceride level in the non-treatment group is taken as 100%.

PPARγ-RXRα heterodimer = molecular target: T1, PPARγ-RXRα heterodimer (Homo sapiens, UniProt P37231); test: PPARγ-RXRα heterodimer ligand activity (luciferase reporter, PPARγ:RXRα:4ERPP/CHO-K1 cells); assay type: cell-based; settings: concentration for 50% of maximum fold induction of luciferase, 48 hrs
T1 construct: expressed in transfected cells
T1 sequence (P37231 1-477 isoform P37231-2): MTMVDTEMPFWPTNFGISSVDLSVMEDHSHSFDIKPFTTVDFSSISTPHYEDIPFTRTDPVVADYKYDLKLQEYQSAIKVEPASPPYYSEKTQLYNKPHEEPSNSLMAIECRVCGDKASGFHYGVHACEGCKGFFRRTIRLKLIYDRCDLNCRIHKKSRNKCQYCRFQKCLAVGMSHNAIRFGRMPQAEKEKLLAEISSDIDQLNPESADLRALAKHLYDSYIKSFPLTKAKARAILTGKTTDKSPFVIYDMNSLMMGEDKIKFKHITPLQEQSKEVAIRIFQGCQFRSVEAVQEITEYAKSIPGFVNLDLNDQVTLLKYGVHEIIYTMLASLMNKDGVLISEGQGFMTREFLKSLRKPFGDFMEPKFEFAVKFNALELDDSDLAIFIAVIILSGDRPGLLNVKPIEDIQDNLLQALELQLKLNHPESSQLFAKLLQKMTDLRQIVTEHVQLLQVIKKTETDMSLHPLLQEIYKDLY
T1 sequence (P19793 1-462 partner): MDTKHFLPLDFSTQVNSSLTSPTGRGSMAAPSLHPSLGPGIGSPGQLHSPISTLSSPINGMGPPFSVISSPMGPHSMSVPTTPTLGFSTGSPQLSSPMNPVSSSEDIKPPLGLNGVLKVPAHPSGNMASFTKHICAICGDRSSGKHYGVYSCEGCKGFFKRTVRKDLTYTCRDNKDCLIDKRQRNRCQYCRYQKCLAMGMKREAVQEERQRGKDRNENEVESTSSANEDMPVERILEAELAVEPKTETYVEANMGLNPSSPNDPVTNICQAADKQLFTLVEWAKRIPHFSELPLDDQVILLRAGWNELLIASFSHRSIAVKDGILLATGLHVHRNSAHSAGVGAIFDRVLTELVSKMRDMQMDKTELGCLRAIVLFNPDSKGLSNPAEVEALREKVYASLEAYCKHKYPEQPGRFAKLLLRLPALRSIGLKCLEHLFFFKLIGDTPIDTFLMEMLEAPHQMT
Description: (PPARγ-RXRα Heterodimer Ligand Activity)
PPARγ:RXRα:4ERPP/CHO-K1 cells obtained in Reference Example 8a were cultured in HAM F12 medium (manufactured by NISSUI SEIYAKU) containing 10% fetal bovine serum [manufactured by Life Technologies, Inc., USA], seeded in a 96-well white plate [manufactured by Corning Coster Corporation, USA] at the density of 2×10^4 cells/well and cultured in a CO2 gas incubator at 37° C. overnight.
After washing the 96-well white plate with PBS (Phosphate-buffered saline), 90 μl of HAM F12 medium containing 0.1% fatty acid-free bovine serum albumin (BSA) and 10 μl of test compound were added, and the cells were cultured in a CO2 gas incubator at 37° C. for 48 hrs. The medium was removed and 40 μl of PicaGene 7.5 (manufactured by Wako Pure Chemical Industries, Ltd.) was added. After stirring, the luciferase activity was determined using Lumistar [manufactured by BMG Labtechnologies GmbH, Germany].
The fold induction was calculated from the luciferase activity of each test compound when the luciferase activity of the non-treatment group is taken as 1. The values of the test compound concentration and the fold induction were analyzed using PRISM 2.01 (produced by GraphPad Software Inc. USA) to calculate the EC50 values, the effective concentration of a test compound for 50% of the maximum fold induction.
Introduction of Human PPARγ- and RXRα-Expression Plasmid and Reporter Plasmid into CHO-K1 Cell and Establishment of Expressed Cell
After a CHO-K1 cell cultured in a tissue culture flask (750 ml) (produced by Corning Costar Corporation, USA) containing HAM F12 medium (produced by NISSUI SEIYAKU) supplemented with 10% fetal bovine serum (produced by Life Technologies, Inc., USA) was scraped by treating with 0.5 g/L trypsin-0.2 g/L EDTA (ethylenediaminetetraacetic acid) (produced by Life Technologies, Inc., USA), the cell was washed with PBS (phosphate-buffered saline) (produced by Life Technologies, Inc., USA), centrifuged (1000 rpm, 5 minutes), and then suspended in PBS. Subsequently, a DNA was introduced into the cell under the conditions shown below using GENE PULSER (produced by Bio-Rad Laboratories, USA).
Namely, to a cuvette having a 0.4 cm gap, added were 8×10^6 cells and 10 μg of plasmid pVgRXR2-hPPARγ obtained in Reference Example 7a and 10 μg of reporter plasmid pGL3-4ERPP-TK neo obtained in Reference Example 4a, which was subjected to electroporation at the voltage of 0.25 kV under the capacitance of 960 μF. Subsequently, the cell was transferred into a HAM F12 medium containing 10% fetal bovine serum and cultured for 24 hours and then the cell was scraped again and centrifuged, and then suspended in HAM F12 medium containing 10% fetal bovine serum supplemented with 500 μg/ml of GENETICIN, (produced by Life Technologies, Inc., USA) and 250 μg /ml of ZEOCIN (produced by Invitrogen, USA). The obtained suspension was diluted to the density of 10^4 cells/ml and inoculated to a 96-well plate (produced by Corning Costar Corporation, USA), which was cultured in a CO2 gas incubator at 37° C., whereby obtaining a GENETICIN- and ZEOCIN-resistant transformant.
Subsequently, after the transformant cell line thus obtained was cultured in a 24-well plate (produced by Corning Costar Corporation, USA), selected was a cell line in which the luciferase was expressed and induced, i.e., PPARγ:RXRα:4ERPP/CHO-K1 cell by the addition of 10 μM pioglitazone hydrochloride.

[3] = percent reduction of blood glucose level vs non-treatment group (100%), read-out: Hypoglycemic action (%)
[4] = percent reduction of blood triglyceride level vs non-treatment group (100%), read-out: Hypolipidemic action (%)

Row | melting point [°C] | EC50 (PPARγ-RXRα heterodimer) [nM] | SMILES | change in vivo at 0.01 % in diet (KKA^y mice [1]) [%] | inhibition in vivo at 0.01 % in diet (KKA^y mice [1]) [%] | inhibition in vivo at 0.01 % in diet (KKA^y mice [2]; [3]) [%] | inhibition in vivo at 0.01 % in diet (KKA^y mice [2]; [4]) [%]
1 | 139 to 140 | 37 | Cc1oc(-c2ccccc2)nc1COc1ccc(COc2nn(C)cc2CC(=O)O)cn1 [Example 26, [1-methyl-3-[6-(5-methyl-2-phenyl-4-oxazolylmethoxy)-3-pyridylmethoxy]-1H-pyrazol-4-yl]acetic acid] | 14 | 14 | 56 | 53
2 | 119 to 120 | 16 | Cc1oc(-c2ccccc2)nc1COc1ccc(Cc2nc(CCC(=O)O)c(-c3ccccc3)s2)cc1 [Example 8, 3-[2-[4-(5-methyl-2-phenyl-4-oxazolylmethoxy)benzyl]-5-phenyl-4-thiazolyl]propionic acid] | 11 | 17 | 43 | 56
3 | 193 to 196 | 16 | Cc1oc(-c2ccccc2)nc1COc1ccc(Cc2nc(-c3ccccc3)c(CCC(=O)O)[nH]2)cc1 [Example 4, 3-[2-[4-(5-methyl-2-phenyl-4-oxazolylmethoxy)benzyl]-4-phenyl-1H-imidazol-5-yl]propionic acid] | – | – | – | –
4 | 142 to 143 | 3.7 | Cc1oc(-c2ccccc2)nc1COc1ccc(Cc2nc(-c3ccccc3)c(CCC(=O)O)o2)cc1 [Example 2, 3-[2-[4-(5-methyl-2-phenyl-4-oxazolylmethoxy)benzyl]-4-phenyl-5-oxazolyl]propionic acid] | – | – | 45 | 52
5 | 136 to 137 | 3.6 | Cc1oc(-c2ccccc2)nc1COc1ccc(Cc2nc(CCC(=O)O)c(-c3ccccc3)o2)cc1 [Example 6, 3-[2-[4-(5-methyl-2-phenyl-4-oxazolylmethoxy)benzyl]-5-phenyl-4-oxazolyl]propionic acid] | 17 | 27 | 46 | 62
6 | 147 to 148 | 0.38 | COc1cc(COc2nn(-c3ccccc3)cc2CC(=O)O)ccc1OCc1nc(-c2ccccc2)oc1C [Example 52, [3-[3-methoxy-4-(5-methyl-2-phenyl-4-oxazolylmethoxy)benzyloxy]-1-phenyl-1H-pyrazol-4-yl]acetic acid] | 16 | 22 | 50 | 82
7 | 155 to 156 | – | Cc1oc(-c2ccco2)nc1COc1ccc(COc2nn(C)cc2CC(=O)O)cn1 [Example 38, [3-[6-[2-(2-furyl)-5-methyl-4-oxazolylmethoxy]-3-pyridylmethoxy]-1-methyl-1H-pyrazol-4-yl]acetic acid] | 12 | 12 | 47 | 36
8 | 164 to 165 | 0.64 | Cc1oc(-c2ccccc2)nc1COc1ccc(COc2nn(-c3ccccc3)cc2CC(=O)O)cn1 [Example 54, [3-[6-(5-methyl-2-phenyl-4-oxazolylmethoxy)-3-pyridylmethoxy]-1-phenyl-1H-pyrazol-4-yl]acetic acid] | 14 | 18 | 52 | 89
9 | 180 to 181 | 6.9 | Cc1oc(-c2ccccc2)nc1COc1ccc(CCc2oc(-c3ccccc3)nc2CC(=O)O)cc1 [Example 64, [5-[2-[4-(5-methyl-2-phenyl-4-oxazolyl)methoxyphenyl]ethyl]-2-phenyl-4-oxazolyl]acetic acid] | – | – | – | –
10 | 151 to 152 | 3.9 | Cc1oc(-c2ccccc2)nc1COc1ccc(COc2nn(-c3ccccc3)cc2CC(=O)O)cc1 [Example 50, [3-[4-(5-methyl-2-phenyl-4-oxazolylmethoxy)benzyloxy]-1-phenyl-1H-pyrazol-4-yl]acetic acid] | 12 | 8 | 46 | 81
